Here are results for 2 compounds from patent US5232928A, “Tetrahydroisoquinoline amides” (Boehringer Ingelheim Pharmaceuticals, Inc., priority 1991, dated 1993).

Common to all, as to assay type: biochemical
The target of one experiment is T1, Human Leukocyte Elastase (Homo sapiens, UniProt P08246).
T1 construct: purchased Elasten Products Co., Pacific, Mo; host or cells: human sputum
T1 sequence (P08246 30-247 limits assumed): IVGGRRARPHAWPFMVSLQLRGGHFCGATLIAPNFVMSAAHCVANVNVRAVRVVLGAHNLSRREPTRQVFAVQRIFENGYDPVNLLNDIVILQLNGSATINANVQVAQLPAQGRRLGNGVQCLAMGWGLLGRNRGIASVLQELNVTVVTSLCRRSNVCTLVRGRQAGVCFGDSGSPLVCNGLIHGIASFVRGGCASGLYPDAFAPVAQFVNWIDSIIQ
The experiment can be described thus: Elastase inhibition in vitro, MeO-Suc-Ala-Ala-Pro-Val-pNA hydrolysis (human sputum elastase). From the text: The method of K. Nakajima et al., Journal of Biological Chemistry, 254: 4027-4032 was adapted to a microtiter format. The in vitro assay is based upon the hydrolysis of the commercially available (Sigma Chemical Company, St. Louis, Mo.) substrate methoxy O-succinyl-L-alanyl-L-alanyl-L-prolyl-L-valine para - nitroanilide (MeO-Suc-Ala-Ala-Pro-Val-pNA) and the release of para-nitroanilide (pNA), which absorbs at 405 nm.
b. Vmax Kinetic Microtiter Plate Reader, equipped with 405 nm filter (Molecular Devices)
a. Human sputum elastase (HSE) (Elasten Products Co., Pacific, Mo.) dissolved 1 mg/mL in 0.05M sodium chloride and frozen (50 μL aliquots) at -20° C. until used.
b. Stock solution of MeO-Suc-Ala-Ala-Pro-Val-pNA dissolved at 15 mM in dimethylsulfoxide (DMSO) and frozen (4 mL aliquots) at -20° C. until used.
c. Assay buffer: 0.1M tris buffer, pH 7.5 containing 0.5M sodium choloride.
Screening is performed in microtiter plates, using 0.5 mM substrate and monitored on a Microtiter Reader. Enzyme activity (+/- test compound) is determined as the rate of pNA release (linear regression analysis of slope). Inhibitory activity of the test compound is calculated relative to the uninhibited enzyme control, as follows: [formula]
A frozen aliquot of HSE is thawed and diluted with assay buffer to a stock concentration of 0.02 mg/mL (30×assay concentration). […]

A further experiment has as its target Thrombin (Homo sapiens, UniProt P00734). The experiment can be described thus: Selectivity assay: thrombin. The note with it: selectivity table.
In a further experiment the target is T2, Recombitant HIV Protease (Human immunodeficiency virus type 1 group M subtype B, UniProt P04585).
T2 construct: Recombitant HIV Protease
The experiment can be described thus: Selectivity assay: recombinant HIV protease. The note with it: selectivity table.

A further experiment has as its target Urokinase (Homo sapiens, UniProt P00749). The experiment can be described thus: Selectivity assay: urokinase. The settings on record: selectivity table.
The target in a further experiment is Cathepsin B (Homo sapiens, UniProt P07858). The experiment can be described thus: Selectivity assay: cathepsin B. The settings on record: selectivity table.
Another experiment deals with Plasmin (Homo sapiens, UniProt P00747). Nature of the experiment: Selectivity assay: plasmin. The settings on record: selectivity table.
Chain of Plasmin (P00747 581-810 limits assumed, species assumed): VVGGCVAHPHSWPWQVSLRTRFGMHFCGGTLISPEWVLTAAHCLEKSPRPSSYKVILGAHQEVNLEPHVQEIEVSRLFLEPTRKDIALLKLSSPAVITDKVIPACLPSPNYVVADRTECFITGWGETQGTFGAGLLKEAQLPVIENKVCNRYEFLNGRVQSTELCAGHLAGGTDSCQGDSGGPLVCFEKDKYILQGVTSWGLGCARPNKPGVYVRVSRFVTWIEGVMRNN
Chain of Plasmin (P00747 97-580 partner limits assumed, species assumed): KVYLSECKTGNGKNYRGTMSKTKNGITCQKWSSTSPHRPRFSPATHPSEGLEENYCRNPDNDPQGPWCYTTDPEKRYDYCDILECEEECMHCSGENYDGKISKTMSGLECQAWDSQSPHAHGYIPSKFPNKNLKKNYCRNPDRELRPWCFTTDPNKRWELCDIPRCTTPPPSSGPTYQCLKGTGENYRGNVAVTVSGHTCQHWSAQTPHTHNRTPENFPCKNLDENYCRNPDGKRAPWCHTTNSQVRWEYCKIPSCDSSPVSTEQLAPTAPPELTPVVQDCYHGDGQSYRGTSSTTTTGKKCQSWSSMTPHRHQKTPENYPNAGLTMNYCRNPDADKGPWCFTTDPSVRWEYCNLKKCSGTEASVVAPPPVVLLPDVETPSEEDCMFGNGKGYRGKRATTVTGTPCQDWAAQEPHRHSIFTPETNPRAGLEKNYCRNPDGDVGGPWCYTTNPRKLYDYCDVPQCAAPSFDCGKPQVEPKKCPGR
The target of another experiment is Chymotrypsin (Bos taurus, UniProt P00766). Nature of the experiment: Selectivity assay: chymotrypsin. The note with it: selectivity table.
Another experiment concerns the target T3, Human C1 Esterase (Homo sapiens, UniProt P09871).
T3 sequence (P09871 438-688 limits assumed): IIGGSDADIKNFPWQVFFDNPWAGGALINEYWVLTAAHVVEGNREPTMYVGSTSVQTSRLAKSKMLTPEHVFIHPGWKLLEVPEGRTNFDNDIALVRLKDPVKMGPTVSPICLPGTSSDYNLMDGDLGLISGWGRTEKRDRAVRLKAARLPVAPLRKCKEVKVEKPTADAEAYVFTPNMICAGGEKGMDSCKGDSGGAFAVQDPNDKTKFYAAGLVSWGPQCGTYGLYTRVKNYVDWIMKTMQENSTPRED
T3 sequence (P09871 16-437 partner limits assumed): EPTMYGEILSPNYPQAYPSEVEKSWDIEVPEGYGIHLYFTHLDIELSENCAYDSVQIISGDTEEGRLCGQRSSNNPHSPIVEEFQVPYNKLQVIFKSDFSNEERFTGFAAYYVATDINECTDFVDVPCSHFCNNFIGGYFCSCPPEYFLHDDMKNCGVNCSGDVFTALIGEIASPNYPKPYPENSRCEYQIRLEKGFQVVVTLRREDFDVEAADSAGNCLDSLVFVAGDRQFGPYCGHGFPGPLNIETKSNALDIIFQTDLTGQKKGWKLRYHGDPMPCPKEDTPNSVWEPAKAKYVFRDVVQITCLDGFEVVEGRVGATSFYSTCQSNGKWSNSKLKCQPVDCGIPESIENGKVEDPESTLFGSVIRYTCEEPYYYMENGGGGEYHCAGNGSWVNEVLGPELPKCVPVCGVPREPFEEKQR
The experiment can be described thus: Selectivity assay: human C1 esterase. The settings on record: selectivity table.

Experiment [1] deals with Recombitant 3C - Proteinase. Nature of the experiment: Selectivity assay: recombinant 3C-proteinase. The settings on record: selectivity table.

Read-outs that look alike come from different tables or passages of the source. Where a SMILES comes first, the peptide text is derived from it. [ ]: non-standard residue; d: D form. The star is where a group is joined. ξ: configuration not given here. ξTic = O=C(O)C1Cc2ccccc2CN1; Cbz = O=C(OCc1ccccc1)*; ξV = CC(C)C(N)C(=O)O; CF3 = FC(F)(F)*

As for `CC(C)C(NC(=O)C1Cc2ccccc2CN1C(=O)[C@@H](NC(=O)OCc1ccccc1)C(C)C)C(=O)C(F)(F)F` (stereo partly drawn) [CBZ] (Cbz-Val-[ξTic]-[ξV]-CF3), at Human Leukocyte Elastase (Table I, in vitro inhibition, 0.5 mM substrate, pH 7.5, read-out: In Vitro IC50), the half-maximal inhibitory concentration (IC50) (usually the point on the concentration scale where inhibition reaches its midpoint) is less than 17.8 µM.

Consider `CC(C)C(NC(=O)C1Cc2ccccc2CN1C(=O)[C@@H](NC(=O)c1ccc(C(=O)NS(=O)(=O)c2ccc(Cl)cc2)cc1)C(C)C)C(=O)C(F)(F)F` (stereo partly drawn) [p-[p-Cl(C6 H4)SO2 NHCO](C6 H4)CO, [[4-(4-Chlorophenyl)sulfonylaminocarbonyl]phenyl-1-oxomethyl]-L-valyl-N-[3-(1,1,1-trifluoro-4-methyl-2-oxopentyl)]-1,2,3,4-tetrahydro-3-isoquinoline-carboxamide], for which the IC50 is greater than 8.01 µM on Thrombin; greater than 66.7 µM on Recombitant HIV Protease; 0.082 mg/L against Human Leukocyte Elastase (selectivity table, Human Leukocyte Elastase); greater than 8.01 µM against Urokinase; greater than 8.01 µM at Cathepsin B; greater than 8.01 µM against Plasmin. The figures for the half-inhibitory concentration (IC50) (on Chymotrypsin; against Human C1 Esterase; in experiment [1]) were greater than 8.01 µM, greater than 8.01 µM and greater than 50 mg/L, respectively.
